In the SangsterLogP compilation:

Question: With `NS(=O)(=O)c1ccnc2ccccc12` as the compound, how does the logP read?
Answer: Its logP is 0.93.

Question: For `CNS(=O)(=O)c1cccc2cccnc12`, which logP is on record?
Answer: The logP was 1.13.

Question: With `CN(C)S(=O)(=O)c1ccnc2ccccc12` as the compound, how does the logP read?
Answer: Its logP is 1.84.

Question: Which logP does the source give for `CNS(=O)(=O)c1cnc2ccccc2c1` here?
Answer: Its logP is 1.4.

Question: With `CN(C)S(=O)(=O)c1ccc2ccccc2n1` as the compound, how does the logP read?
Answer: Its logP is 1.98.

Question: Which logP does the source give for `CNS(=O)(=O)c1ccc2ncccc2c1` here?
Answer: The logP was 1.

Question: For `CNS(=O)(=O)c1cccc2ncccc12`, which logP is on record?
Answer: Its logP is 1.06.

Question: Which logP does the source give for `CN(C)S(=O)(=O)c1cccc2cccnc12` here?
Answer: The logP was 1.69.

Question: For `CN(C)S(=O)(=O)c1cnc2ccccc2c1`, which logP is on record?
Answer: Its logP is 1.86.

Question: With `CNS(=O)(=O)c1ccc2cccnc2c1` as the compound, how does the logP read?
Answer: The logP was 1.02.

Question: Which logP does the source give for `NS(=O)(=O)c1cnc2ccccc2c1` here?
Answer: Its logP is 0.91.

Question: For `CNS(=O)(=O)c1ccc2ccccc2n1`, which logP is on record?
Answer: Its logP is 1.57.

Question: For `NS(=O)(=O)c1ccc2cccnc2c1`, which logP is on record?
Answer: Its logP is 0.61.

Question: For `CN(C)S(=O)(=O)c1ccc2ncccc2c1`, which logP is on record?
Answer: The logP was 1.53.

Question: For `CNS(=O)(=O)c1ccnc2ccccc12`, which logP is on record?
Answer: The logP was 1.32.

Question: Which logP does the source give for `CN(C)S(=O)(=O)c1cccc2ncccc12` here?
Answer: Its logP is 1.56.

Question: For `CN(C)S(=O)(=O)c1ccc2cccnc2c1`, which logP is on record?
Answer: Its logP is 1.57.

Question: Which logP does the source give for `NS(=O)(=O)c1cccc2ncccc12` here?
Answer: Its logP is 0.6.

Question: Which logP does the source give for `NS(=O)(=O)c1cccc2cccnc12` here?
Answer: Its logP is 0.51.

Question: Which logP does the source give for `NS(=O)(=O)c1ccc2ccccc2n1` here?
Answer: The logP was 1.16.
